# Source: patent US10005774B2, “Syk inhibitors” (Gilead Sciences, Inc., priority 2013, dated 2018)
# Biological target: Syk (Homo sapiens, UniProt P43405)
# Assay: High Throughput Syk Biochemical Assay (KinEASE TR-FRET)
# Settings: TABLE D, 20 μM ATP, 1 μM biotinylated peptide, 0.015 nM Syk, 30 min at room temperature, read-out: IC50
# How it was run: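 Compounds in DMSO dilution series were tested against Syk, which phosphorylates an XL665-tagged peptide. The phosphoproduct was bound by Eu-labelled phosphotyrosine antibody in a two-step endpoint format.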
row,IC50 [nM],Compound
1,35.1,"C[C@@H](Oc1nc(-c2cnn(C(C)(C)C)c2)cc2ncn(C(F)F)c12)[C@H]1CNC(=O)C12CC2 [(R)-7-((R)-1-((6-(1-(tert-butyl)-1H-pyrazol-4-yl)-3-(difluoromethyl)-3H-imidazo[4,5-c]pyridin-4-yl)oxy)ethyl)-5-azaspiro[2.4]heptan-4-one]"
2,30.6,"C[C@@H](Oc1nc(-c2ccc3scnc3c2)cc2ncn(C)c12)[C@H]1CNC(=O)C1 [(R)-4-((R)-1-((6-(benzo[d]thiazol-5-yl)-3-methyl-3H-imidazo[4,5-c]pyridin-4-yl)oxy)ethyl)pyrrolidin-2-one]"
3,23.5,"C[C@@H](Oc1nc(-c2cnn(C3COC3)c2)cc2ncn(C)c12)[C@H]1CNC(=O)C1 [(R)-4-((R)-1-(3-methyl-6-(1-(oxetan-3-yl)-1H-pyrazol-4-yl)-3H-imidazo[4,5-c]pyridin-4-yloxy)ethyl)pyrrolidin-2-one]"
4,39.1,"COc1ccc(-c2cc(O[C@H](C)[C@H]3CNC(=O)C3)c3ccnn3c2)cc1OC [(R)-4-((R)-1-((6-(3,4-dimethoxyphenyl)pyrazolo[1,5-a]pyridin-4-yl)oxy)ethyl)pyrrolidin-2-one]"
5,95.8,"COc1ccc(-c2cc3nc(C)n(C4CC4)c3c(O[C@H](C)[C@H]3CNC(=O)C3)n2)cc1OC [(R)-4-((R)-1-(3-cyclopropyl-6-(3,4-dimethoxyphenyl)-2-methyl-3H-imidazo[4,5-c]pyridin-4-yloxy)ethyl)pyrrolidin-2-one]"
6,2.49,"COc1ccc(-c2cc3ncn(CF)c3c(O[C@H](C)[C@H]3CNC(=O)C3)n2)cc1OC [(R)-4-((R)-1-(6-(3,4-dimethoxyphenyl)-3-(fluoromethyl)-3H-imidazo[4,5-c]pyridin-4-yloxy)ethyl)pyrrolidin-2-one]"
7,34,"COc1ccc(-c2cc3ncn(C)c3c(O[C@H](C)[C@H]3CNC(=O)C3)n2)nc1OC [(R)-4-((R)-1-(6-(5,6-dimethoxypyridin-2-yl)-3-methyl-3H-imidazo[4,5-c]pyridin-4-yloxy)ethyl)pyrrolidin-2-one]"
8,9.62,"C[C@@H](Oc1nc(-c2ccc3c(cnn3C)c2)cc2ncn(C)c12)[C@H]1CNC(=O)C1 [(R)-4-((R)-1-((3-methyl-6-(1-methyl-1H-indazol-5-yl)-3H-imidazo[4,5-c]pyridin-4-yl)oxy)ethyl)pyrrolidin-2-one]"
9,148,"C[C@@H](Oc1nc(-c2ccc3c(c2)OC(F)(F)O3)cc2ncn(C)c12)[C@H]1CNC(=O)C1 [(R)-4-((R)-1-(6-(2,2-difluorobenzo[d][1,3]dioxol-5-yl)-3-methyl-3H-imidazo[4,5-c]pyridin-4-yloxy)ethyl)pyrrolidin-2-one]"
10,22.2,Cc1nc2cc(-c3cnn(C(C)(C)C)c3)cc(O[C@H](C)[C@H]3CNC(=O)C3)c2s1 (stereo in doubt) [(R)-4-((R)-1-((5-(1-(tert-butyl)-1H-pyrazol-4-yl)-2-methylbenzo[d]thiazol-7-yl)oxy)ethyl)pyrrolidin-2-one]
11,53.7,"COc1ccc(-c2cc(O[C@H](C)[C@H]3CNC(=O)C3)c3c(C)cnn3c2C)cc1OC [(R)-4-((R)-1-((6-(3,4-dimethoxyphenyl)-3,7-dimethylpyrazolo[1,5-a]pyridin-4-yl)oxy)ethyl)pyrrolidin-2-one]"
12,0.31,"C[C@@H](Oc1cc(-c2ccc(N3CCOCC3)cc2)cn2ncc(Cl)c12)[C@H]1CNC(=O)C1 [(R)-4-((R)-1-((3-chloro-6-(4-morpholinophenyl)pyrazolo[1,5-a]pyridin-4-yl)oxy)ethyl)pyrrolidin-2-one]"
13,8.93,"C[C@@H](Oc1nc(-c2ccc3c(c2)OCCN3C)cc2ncn(C)c12)[C@H]1CNC(=O)C1 [(R)-4-((R)-1-(3-methyl-6-(4-methyl-3,4-dihydro-2H-benzo[b][1,4]oxazin-7-yl)-3H-imidazo[4,5-c]pyridin-4-yloxy)ethyl)pyrrolidin-2-one]"
14,2.97,"C[C@@H](Oc1cc(-c2cc3c(cnn3C)s2)cc2ncsc12)[C@H]1CNC(=O)C1 (stereo in doubt) [(R)-4-((R)-1-((5-(1-methyl-1H-thieno[3,2-c]pyrazol-5-yl)benzo[d]thiazol-7-yl)oxy)ethyl)pyrrolidin-2-one]"
15,186,"COC[C@@H](Oc1nc(-c2cnn(C(C)(C)C)c2)cc2ncn(C)c12)[C@H]1CNC(=O)C1 [(R)-4-((S)-1-(6-(1-tert-butyl-1H-pyrazol-4-yl)-3-methyl-3H-imidazo[4,5-c]pyridin-4-yloxy)-2-methoxyethyl)pyrrolidin-2-one]"
16,32.8,"C[C@@H](Oc1nc(-c2cnn(C(F)F)c2)cc2ncn(C)c12)[C@H]1CNC(=O)C1 [(R)-4-((R)-1-(6-(1-(difluoromethyl)-1H-pyrazol-4-yl)-3-methyl-3H-imidazo[4,5-c]pyridin-4-yloxy)ethyl)pyrrolidin-2-one]"

# Same assay, conditions: table 'ALL NEW COMPOUNDS IN 2014', 20 μM ATP, 1 μM biotinylated peptide, 0.015 nM Syk, 30 min at room temperature, read-out: Syk IC50
row,IC50 [nM],Compound
1,1.05,"CCS(=O)(=O)N1CCN(c2ccc(-c3cc4ncn(C5CC5)c4c(O[C@H](C)[C@H]4CNC(=O)C4)n3)cc2)CC1 [(R)-4-((R)-1-((3-cyclopropyl-6-(4-(4-(ethylsulfonyl)piperazin-1-yl)phenyl)-3H-imidazo[4,5-c]pyridin-4-yl)oxy)ethyl)pyrrolidin-2-one]"
2,2.56,"C[C@@H](Oc1cc(-c2ccc3c(c2)NCCO3)cc2ncn(C3CC3)c12)[C@H]1CNC(=O)C1 [(R)-4-((R)-1-((1-cyclopropyl-5-(3,4-dihydro-2H-benzo[b][1,4]oxazin-6-yl)-1H-benzo[d]imidazol-7-yl)oxy)ethyl)pyrrolidin-2-one]"
3,14.4,C[C@@H](Oc1nc(-c2ccc3oc(=O)n(C)c3c2)cc2ncn(C3CC3)c12)[C@H]1CNC(=O)C1
4,135,"C[C@@H](Oc1nc(-c2ccc(N3CCN(C4COC4)CC3)cc2)cc2ncn(CCO)c12)[C@H]1CNC(=O)C1 [(R)-4-((R)-1-((3-(2-hydroxyethyl)-6-(4-(4-(oxetan-3-yl)piperazin-1-yl)phenyl)-3H-imidazo[4,5-c]pyridin-4-yl)oxy)ethyl)pyrrolidin-2-one]"
5,2.02,"C[C@@H](Oc1nc(-c2ccc(N3CCN(S(C)(=O)=O)CC3)c(F)c2)cc2ncn(C3CC3)c12)[C@H]1CNC(=O)C1 [(R)-4-((R)-1-((3-cyclopropyl-6-(3-fluoro-4-(4-(methylsulfonyl)piperazin-1-yl)phenyl)-3H-imidazo[4,5-c]pyridin-4-yl)oxy)ethyl)pyrrolidin-2-one]"
6,2.13,"C[C@@H](Oc1nc(-c2cnc(N3CCOCC3)s2)cc2ncn(C3CC3)c12)[C@H]1CNC(=O)C1 [(R)-4-((R)-1-((3-cyclopropyl-6-(2-morpholinothiazol-5-yl)-3H-imidazo[4,5-c]pyridin-4-yl)oxy)ethyl)pyrrolidin-2-one]"
7,8.52,C[C@@H](Oc1nc(-c2ccc(C3(O)CC3)cc2)cc2ncn(C3CC3)c12)[C@H]1CNC(=O)C1
8,2.78,"COc1cc(-c2cc3ncn(C4CC4)c3c(O[C@H](C)[C@H]3CNC(=O)C3)n2)ccc1OCC(F)F [(R)-4-((R)-1-((3-cyclopropyl-6-(4-(2,2-difluoroethoxy)-3-methoxyphenyl)-3H-imidazo[4,5-c]pyridin-4-yl)oxy)ethyl)pyrrolidin-2-one]"
9,22.4,"C[C@@H](Oc1cc(-c2cnn(C)n2)cc2ncn(C3CC3)c12)[C@H]1CNC(=O)C1 [(R)-4-((R)-1-((1-cyclopropyl-5-(2-methyl-2H-1,2,3-triazol-4-yl)-1H-benzo[d]imidazol-7-yl)oxy)ethyl)pyrrolidin-2-one]"
10,6.57,"(R)-4-((R)-1-((3-cyclopropyl-6-(3,4-dimethoxyphenyl)-3H-imidazo[4,5-c]pyridin-4-yl)oxy)ethyl)pyrrolidin-2-one"
11,9.11,"C[C@@H](Oc1cc(-c2ccc3c(c2)NCC3(C)C)cc2ncn(C3CC3)c12)[C@H]1CNC(=O)C1 [(R)-4-((R)-1-((1-cyclopropyl-5-(3,3-dimethylindolin-6-yl)-1H-benzo[d]imidazol-7-yl)oxy)ethyl)pyrrolidin-2-one]"
12,5.01,C[C@@H](Oc1cc(-c2ccn(C(C)(C)C)n2)cc2ncn(C3CC3)c12)[C@H]1CNC(=O)C1 [(R)-4-((R)-1-((5-(1-(tert-butyl)-1H-pyrazol-3-yl)-1-cyclopropyl-1H-benzo[d]imidazol-7-yl)oxy)ethyl)pyrrolidin-2-one]
13,66.7,C[C@@H](Oc1cc(-c2cnccn2)cc2ncn(C3CC3)c12)[C@H]1CNC(=O)C1 [(R)-4-((R)-1-((1-cyclopropyl-5-(pyrazin-2-yl)-1H-benzo[d]imidazol-7-yl)oxy)ethyl)pyrrolidin-2-one]
14,11.6,C[C@@H](Oc1cc(-c2ccc(N3CCN(C4COC4)CC3)nn2)cc2ncn(C3CC3)c12)[C@H]1CNC(=O)C1 [(R)-4-((R)-1-((1-cyclopropyl-5-(6-(4-(oxetan-3-yl)piperazin-1-yl)pyridazin-3-yl)-1H-benzo[d]imidazol-7-yl)oxy)ethyl)pyrrolidin-2-one]
15,9.4,C[C@@H](Oc1cc(-c2nccs2)cc2ncn(C3CC3)c12)[C@H]1CNC(=O)C1 [(R)-4-((R)-1-((1-cyclopropyl-5-(thiazol-2-yl)-1H-benzo[d]imidazol-7-yl)oxy)ethyl)pyrrolidin-2-one]
16,1.41,C[C@@H](Oc1cc(-c2cnc(C(C)(C)O)s2)cc2ncn(C3CC3)c12)[C@H]1CNC(=O)C1 [(R)-4-((R)-1-((1-cyclopropyl-5-(2-(2-hydroxypropan-2-yl)thiazol-5-yl)-1H-benzo[d]imidazol-7-yl)oxy)ethyl)pyrrolidin-2-one]
17,6.07,"Cc1nc(-c2cc(O[C@H](C)[C@H]3CNC(=O)C3)c3c(c2)ncn3C2CC2)cn1C [(R)-4-((R)-1-((1-cyclopropyl-5-(1,2-dimethyl-1H-imidazol-4-yl)-1H-benzo[d]imidazol-7-yl)oxy)ethyl)pyrrolidin-2-one]"
18,7.54,"C[C@@H](Oc1nc(-c2cnc(C(C)(C)O)s2)cc2ncn(C3CC3)c12)[C@H]1CNC(=O)C1 [(R)-4-((R)-1-((3-cyclopropyl-6-(2-(2-hydroxypropan-2-yl)thiazol-5-yl)-3H-imidazo[4,5-c]pyridin-4-yl)oxy)ethyl)pyrrolidin-2-one]"
